Results: US7109216B2 (priority 2001, dated 2006)
pKi: −log10 of the molar value. Read-outs that look alike come from different tables or passages of the source.

Columns and labels:
[1] = biological target: human cannabinoid CB1 receptor (Homo sapiens, UniProt P21554); test: biochemical; type: binding; design: expressed in transfected cells; host or cells: Chinese hamster ovary (CHO) cells, membrane preparation; conditions: [3H]CP-55,940 radioligand, CHO cell membranes stably transfected with human CB1; for pKi: hCB1 pKi; for Ki: read-out: hCB1 pKi (converted)
Description: After incubation of a freshly prepared cell membrane preparation with the [^3H]-ligand, with or without addition of compounds of the invention, separation of bound and free ligand was performed by filtration over glassfiber filters. Radioactivity on the filter was measured by liquid scintillation counting.

Chain of human cannabinoid CB1 receptor (P21554 whole entry): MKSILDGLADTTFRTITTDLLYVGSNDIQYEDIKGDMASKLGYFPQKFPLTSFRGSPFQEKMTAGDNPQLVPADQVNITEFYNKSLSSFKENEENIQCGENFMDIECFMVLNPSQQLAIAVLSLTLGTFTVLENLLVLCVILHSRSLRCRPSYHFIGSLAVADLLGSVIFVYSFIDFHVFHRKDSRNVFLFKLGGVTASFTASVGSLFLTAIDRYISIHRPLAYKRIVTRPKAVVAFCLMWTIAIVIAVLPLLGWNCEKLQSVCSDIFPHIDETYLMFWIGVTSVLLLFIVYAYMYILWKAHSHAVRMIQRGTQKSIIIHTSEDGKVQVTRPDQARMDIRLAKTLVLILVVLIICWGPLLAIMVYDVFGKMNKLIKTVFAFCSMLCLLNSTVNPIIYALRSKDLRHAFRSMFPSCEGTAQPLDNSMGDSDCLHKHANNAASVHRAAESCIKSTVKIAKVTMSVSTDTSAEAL

SMILES	melting point	pKi [1]	Ki [1]
CCCCCNC(=O)c1nc(-c2ccc(Cl)cc2F)n(-c2ccc(Cl)cc2)c1C [Example 67, 1-(4-Chlorophenyl)-2-(2-fluoro-4-chlorophenyl)-5-methyl-N-(n-pentyl)-1H-imidazole-4-carboxamide]	115 °C	6.40	–
Cc1c(C(=O)NC2CCCCC2)nc(-c2ccc(Cl)cc2F)n1-c1ccc(Cl)cc1 [Example 68, 1-(4-Chlorophenyl)-N-(cyclohexyl)-2-(2-fluoro-4-chlorophenyl)-5-methyl-1H-imidazole-4-carboxamide]	188 °C	6.70	–
Cc1ccc(-c2nc(C(=O)NC3CCCCC3)c(C)n2-c2ccc(Cl)cc2)n1C [Example 69, 1-(4-Chlorophenyl)-N-(cyclohexyl)-2-(1,5-dimethyl-1H-pyrrol-2-yl)-5-methyl-1H-imidazole-4-carboxamide]	188 to 189 °C	7.40	–
Cc1ccc(-c2nc(C(=O)NN3CCCCC3)c(C)n2-c2ccc(Cl)cc2)n1C [Example 70, 1-(4-Chlorophenyl)-2-(1,5-dimethyl-1H-pyrrol-2-yl)-5-methyl-N-(piperidin-1-yl)-1H-imidazole-4-carboxamide]	208 to 210 °C	8.30	–
Cc1c(C(=O)NN2CCCCC2)nc(-c2ccccc2Cl)n1-c1cccc(F)c1 [Example 71, 2-(2-Chlorophenyl)-1-(3-fluorophenyl)-5-methyl-N-(piperidin-1-yl)-1H-imidazole-4-carboxamide]	236 to 238 °C	7.40	–
Cc1c(C(=O)NC2CCCCC2)nc(-c2ccccc2Cl)n1-c1cccc(F)c1 [Example 73, 2-(2-Chlorophenyl)-N-cyclohexyl-1-(3-fluorophenyl)-5-methyl-1H-imidazole-4-carboxamide]	180 to 182.5 °C	7.90	–
Cc1c(C(=O)NCCc2ccc(F)cc2)nc(-c2ccccc2Cl)n1-c1cccc(F)c1 [Example 74, 2-(2-Chlorophenyl)-1-(3-fluorophenyl)-N-(2-(4-fluorophenyl)ethyl)-5-methyl-1H-imidazole-4-carboxamide]	123.5 to 126 °C	–	398 nM
CCc1c(C(=O)NN2CCCCC2)nc(-c2ccc(Cl)cc2Cl)n1-c1ccc(Cl)cn1 [Example 75, 1-(5-Chloropyridin-2-yl)-2-(2,4-dichlorophenyl)-5-ethyl-N-(piperidin-1-yl)-1H-imidazole-4-carboxamide]	146 °C	7.00	–
CCc1c(C(=O)NN2CCOCC2)nc(-c2ccc(Cl)cc2Cl)n1-c1ccc(Cl)cn1 [Example 76, 1-(5-Chloropyridin-2-yl)-2-(2,4-dichlorophenyl)-5-ethyl-N-(4-morpholinyl)-1H-imidazole-4-carboxamide]	223 °C	–	251 nM
CCc1c(C(=O)NN2CCCCCC2)nc(-c2ccc(Cl)cc2Cl)n1-c1ccc(Cl)cn1 [Example 77, N-(1-Azepanyl)-1-(5-Chloropyridin-2-yl)-2-(2,4-dichlorophenyl)-5-ethyl-1H-imidazole-4-carboxamide]	177 °C	7.50	–
CCc1c(C(=O)NC2CCCCC2)nc(-c2ccc(Cl)cc2Cl)n1-c1ccc(Cl)cn1 [Example 78, 1-(5-Chloropyridin-2-yl)-N-cyclohexyl-2-(2,4-dichlorophenyl)-5-ethyl-1H-imidazole-4-carboxamide]	149 °C	8.50	–
Cc1c(C(=O)Nc2ccccc2)nc(-c2ccc(Cl)cc2Cl)n1-c1ccc(Cl)cc1 [Example 82, 1-(4-Chlorophenyl)-2-(2,4-dichlorophenyl)-5-methyl-N-phenyl-1H-imidazole-4-carboxamide]	91 to 95 °C	8.60	–
Cc1c(C(=O)NOC2CCCCO2)nc(-c2ccc(Cl)cc2Cl)n1-c1ccc(Cl)cc1 (centres unmarked) [Example 83, 1-(4-Chlorophenyl)-2-(2,4-dichlorophenyl)-5-methyl-N-(tetrahydro-2H-pyran-2-yloxy)-1H-imidazole-4-carboxamide]	128 to 133 °C	8.40	–
